Experimental findings from article PMC5319980, “Mutant Analysis Reveals Allosteric Regulation of ClpB Disaggregase” (Frontiers in Molecular Biosciences, 2017) are described below.

Test [1] has as its target T1, ClpB (Escherichia coli, UniProt P63284).
T1 construct: ClpB wild type
The test can be described thus: biochemical. The arrangement: competition titration of nucleotide against preformed ClpB-mantADP complex, mantADP fluorescence. Particulars: competition with 1.25 uM mantADP; read-out: Knuc (WT). On the procedure: with F: observed fluorescence; F0: starting fluorescence without nucleotide; F1: maximum fluorescence observed; [ATP]: concentration of ADP/ATPγS (μM); Ki,app: apparent dissociation constant. with Ki,app: apparent dissociation constant; Ki: dissociation constant; [mantADP]: mantADP concentration (μM); Kd (mantADP): dissociation constant of mantADP. […] ClpB WT and mutants were incubated for 5 min at 25°C in presence of 2 mM ATPγS. Crosslinking reactions were started by addition of glutaraldehyde and proceeded for 2 and 10 min. Crosslinking products were separated by SDS-PAGE, followed by Sypro-Ruby staining. Supplementary Figure 2 Nucleotide binding properties of ClpB wild type. (A)1,5 µM mantADP was incubated with increasing concentrations of ClpB wild type and derivatives and the increase in mantADP fluorescence was determined. The fluorescence intensity of mantADP in absence of ClpB proteins was set at 1. Determined dissociation constants (Kd) are given. (B) Increasing nucleotide concentrations (ADP, ATPγS) were added to a preformed ClpB-mantADP complex (1,25 µM MANTADP, 1,25 µM ClpB WT or derivatives). Determined dissociation constants (Kd) are given.

Test [2] deals with T1, ClpB. The test can be described thus: NADH-coupled ATPase assay with purified ClpB, without and with casein. It is filed as biochemical.
Test [3] addresses ClpB (Escherichia coli, UniProt P63284, K476C). The test can be described thus: equilibrium fluorescence titration of mantADP with ClpB. The class given is binding.
The target of test [4] is ClpB (Escherichia coli, UniProt P63284, A328V). The description is as above. The class given is binding.
ClpB (Escherichia coli, UniProt P63284, A328V), sequence (P63284 whole entry A328V): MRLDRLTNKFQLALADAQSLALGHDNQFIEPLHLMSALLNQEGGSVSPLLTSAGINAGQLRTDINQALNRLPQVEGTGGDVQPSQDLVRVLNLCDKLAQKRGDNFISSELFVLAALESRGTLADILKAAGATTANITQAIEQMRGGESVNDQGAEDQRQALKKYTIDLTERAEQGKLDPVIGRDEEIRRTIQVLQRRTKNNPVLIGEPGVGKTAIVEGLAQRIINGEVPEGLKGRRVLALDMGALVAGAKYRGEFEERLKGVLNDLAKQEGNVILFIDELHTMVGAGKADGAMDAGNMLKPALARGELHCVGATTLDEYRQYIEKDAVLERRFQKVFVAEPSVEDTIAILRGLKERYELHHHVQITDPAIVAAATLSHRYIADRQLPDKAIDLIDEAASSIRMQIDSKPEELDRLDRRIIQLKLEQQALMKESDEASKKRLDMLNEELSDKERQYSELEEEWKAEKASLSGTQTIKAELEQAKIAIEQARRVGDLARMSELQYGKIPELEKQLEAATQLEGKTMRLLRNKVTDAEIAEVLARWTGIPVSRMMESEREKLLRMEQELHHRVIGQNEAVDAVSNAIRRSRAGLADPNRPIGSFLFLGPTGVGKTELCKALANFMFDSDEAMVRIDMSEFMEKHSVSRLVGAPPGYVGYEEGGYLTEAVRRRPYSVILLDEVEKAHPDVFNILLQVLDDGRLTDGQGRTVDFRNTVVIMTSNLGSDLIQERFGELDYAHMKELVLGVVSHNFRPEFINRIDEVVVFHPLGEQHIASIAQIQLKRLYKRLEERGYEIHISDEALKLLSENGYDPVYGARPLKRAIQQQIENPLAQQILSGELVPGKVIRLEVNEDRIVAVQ
The target of test [5] is T1, ClpB. Described as above. The class given is binding.

T1 sequence (P63284 whole entry): as the sequence (P63284 whole entry A328V) above, with V328A counted along it
ClpB (Escherichia coli, UniProt P63284, K476C), sequence (P63284 whole entry K476C, looked up): as the sequence (P63284 whole entry A328V) above, with V328A, K476C counted along it

Turning to `Nc1ncnc2c1ncn2[C@@H]1O[C@H](COP(=O)(O)OP(=O)(O)O)[C@@H](O)[C@H]1O` [ADP], on ClpB [1], the Kd is 7600 nM.
For `Nc1ncnc2c1ncn2[C@@H]1O[C@H](COP(=O)(O)OP(=O)(O)OP(=O)(O)O)[C@@H](O)[C@H]1O` [ATP], the “NADH-coupled ATPase assay with purified ClpB, without and with casein” value on ClpB [2] was “ATPase activities of ClpB wild type (WT) and indicated ClpB mutants were determined in absence (−) and presence (+)”.
For `Nc1ncnc2c1ncn2[C@@H]1O[C@H](CO[P@](=O)(O)O[P@](=O)(O)O[P@@](=O)(O)S)[C@@H](O)[C@H]1O` [ATPγS], on ClpB [1], the Kd came out at 8100 nM.
As for mantADP, the Kd on ClpB [3] is 250 nM; at ClpB [4] it was 510 nM; on ClpB [5], 230 nM.
